Measurements: US7407973B2, “Use of pirfenidone in therapeutic regimens” (Intermune, Inc., priority 2003, dated 2008)

Test system: STAT1
Assay: IFN-γ-induced STAT1 tyrosine phosphorylation in ME180 cells (immunoblot)
Assay type: cell-based, human
Settings: serum-starved ME180 cells; 100 μg/ml Pirfenidone for 1 h, then 10 ng/ml IFN-γ for 0-60 min; anti-phospho STAT1 immunoblot
Protocol: ME180 cells were grown in DMEM supplemented with 10% heat inactivated fetal calf serum, 2 mM L-glutamine, streptomycin (100 μg/ml) and penicillin (100 units/ml). Briefly, cells were seeded at a density of 5×10^6 cells in 100 mm tissue culture dishes. After 24 hrs, cells were washed with phosphate-buffered saline (PBS) and incubated in serum free growth media for 16 hours, then treated with medium or with 100 μg/ml of Pirfenidone for 1 h before treating them with Actimune (10 ng/ml) for 0-10-20-40 and 60 min. At the end of incubation period, cells were lysed by incubation in 50 mM HEPES (pH 7.0) containing 100 mM NaCl, 1.2% Triton X-100, 10% glycerol, 1.5 mM MgCl2, 100 mM NaF, 10 mM sodium pyrophosphate, 1 mM sodium orthovanadate, 1 mM EGTA (ethylene glycol-bis-β-aminoethylether-tetraacetic acid), 1 mM DTT (dithiothreitol), 1 mM phenylmethylsulfonylfloride (PMSF), 0.15 unit/ml aprotinin, 10 μg/ml leupeptin, 10 μg/ml pepstatin. Lysates were clarified by centrifugation (12.000×g for 1 min.). Equal amounts (100 μg) total proteins were subjected to SDS-PAGE on 10% polyacrylamide gels to separate the proteins. The proteins were then electrophoretically transferred from the polyacrylamide gel onto a nitrocellulose sheet for overnight at 20 mAmp, and analyzed by immunoblotting with anti-phospho STAT1-specific antibody (antibody specific for phosphorylated STAT1). […]

**Q.** With `Cc1ccc(=O)n(-c2ccccc2)c1` [pirfenidone, 5-methyl-1-phenyl-2-(1H)-pyridone] as the compound, how does the “Effect on IFN-γ-induced STAT1 tyrosine phosphorylation” value read?
**A.** The value was “does not affect”.
